Source: patent US20090069370A1, “AZACYCLYLISOQUINOLINONE AND ISOINDOLINONE DERIVATIVES AS HISTAMINE-3 ANTAGONISTS” (Wyeth, priority 2007, published 2009)
Where a name gives a salt, the structure may show the parent alone.

target: T1, Human Histamine H3 Receptor (Homo sapiens, UniProt Q9Y5N1); experiment: Methyl histamine binding in human histamine H3 receptor cell line; settings: membranes of stably transfected HEK293T cells; radioligand 1 nM; Ki from IC50 by Cheng-Prusoff
T1 construct: expressed in transfected cells; host or cells: HEK293T cells, stably transfected; membrane preparation
T1 sequence (Q9Y5N1 whole entry): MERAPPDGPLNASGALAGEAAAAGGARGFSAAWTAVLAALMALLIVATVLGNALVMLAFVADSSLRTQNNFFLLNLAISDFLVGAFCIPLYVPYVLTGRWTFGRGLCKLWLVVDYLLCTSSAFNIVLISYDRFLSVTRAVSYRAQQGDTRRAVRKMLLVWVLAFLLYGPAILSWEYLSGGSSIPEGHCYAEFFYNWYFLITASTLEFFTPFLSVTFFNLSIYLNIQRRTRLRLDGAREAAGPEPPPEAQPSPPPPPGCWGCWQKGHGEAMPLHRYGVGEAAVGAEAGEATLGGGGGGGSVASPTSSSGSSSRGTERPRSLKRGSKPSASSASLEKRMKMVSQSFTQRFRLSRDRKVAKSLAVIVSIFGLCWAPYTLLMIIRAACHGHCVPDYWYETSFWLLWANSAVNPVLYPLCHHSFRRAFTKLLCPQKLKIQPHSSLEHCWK
Method in brief: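 Radioligand (1 nM final) displacement on membranes (10 μg) from stably transfected HEK293T cells, 1 h at 30 °C in 50 mM Tris pH 7.5, compounds ~100 μM–100 pM, nonspecific with 10 uM clobenpropit, filtration and scintillation counting. IC50 from four-parameter fit; Ki via Cheng-Prusoff.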

| SMILES | Ki [nM] |
| --- | --- |
| O=C(O)c1ccc(Oc2ccc3c(c2)CCN(C2CCN(C4CCC4)CC2)C3=O)cc1 [Example 2, 4-{[2-(1-cyclobutylpiperidin-4-yl)-1-oxo-1,2,3,4-tetrahydroiso-quinolin-6-yl]oxy}benzoic acid] | 50.1 to 100 |
| COC(=O)c1ccc(COc2ccc3c(c2)CCN(C2CCN(C4CCC4)CC2)C3=O)cc1 [Example 13, methyl 4-({[2-(1-Cyclobutylpiperidin-4-yl)-1-oxo-1,2,3,4-tetrahydroisoquinolin-6-yl]oxy}methyl)benzoate] | 10.1 to 25 |
| O=C(O)c1ccc(COc2ccc3c(c2)CCN(C2CCN(C4CCC4)CC2)C3=O)cc1 [Example 14, 4-({[2-(1-cyclobutylpiperidin-4-yl)-1-oxo-1,2,3,4-tetrahydroiso-quinolin-6-yl]oxy}methyl)benzoic acid] | 10.1 to 25 |
| O=C(O)c1ccc(Oc2ccc3c(c2)CCN([C@@H]2CCN(C4CCCC4)C2)C3=O)cc1 [Example 36, (R)-4-(2-(1-cyclopentylpyrrolidin-3-yl)-1-oxo-1,2,3,4-tetrahydro-isoquinolin-6-yloxy)benzoic acid] | 50.1 to 100 |
| C[C@@H]1CCCN1C(=O)c1ccc(-c2ccc3c(c2)CCN([C@@H]2CCN(C4CCC4)C2)C3=O)c(F)c1 [Example 76, 2-[(3R)-1-cyclobutylpyrrolidin-3-yl]-6-(2-fluoro-4-{[(2R)-2-methylpyrrolidin-1-yl]carbonyl}phenyl)-3,4-dihydroisoquinolin-1(2H)-one] | ≤ 10 |
| CCNC(=O)c1ccc(-c2ccc3c(c2)CCN([C@@H]2CCN(C4CCC4)C2)C3=O)c(F)c1 [Example 77, 4-{2-[(3R)-1-cyclobutylpyrrolidin-3-yl]-1-oxo-1,2,3,4-tetrahydroisoquinolin-6-yl}-N-ethyl-3-fluorobenzamide] | ≤ 10 |
| CN(C)C(=O)c1ccc(-c2ccc3c(c2)CCN([C@@H]2CCN(C4CCC4)C2)C3=O)c(F)c1 [Example 78, 4-{2-[(3R)-1-cyclobutylpyrrolidin-3-yl]-1-oxo-1,2,3,4-tetrahydroisoquinolin-6-yl}-3-fluoro-N,N-dimethylbenzamide] | ≤ 10 |
| O=C(c1ccc(-c2ccc3c(c2)CCN([C@@H]2CCN(C4CCC4)C2)C3=O)c(F)c1)N1CCCC1 [Example 79, 2-[(3R)-1-cyclobutylpyrrolidin-3-yl]-6-[2-fluoro-4-(pyrrolidin-1-ylcarbonyl)phenyl]-3,4-dihydroisoquinolin-1(2H)-one] | ≤ 10 |
| O=C(NC1CCCC1)c1ccc(-c2ccc3c(c2)CCN([C@@H]2CCN(C4CCC4)C2)C3=O)c(F)c1 [Example 80, 4-{2-[(3R)-1-cyclobutylpyrrolidin-3-yl]-1-oxo-1,2,3,4-tetrahydroisoquinolin-6-yl}-N-cyclopentyl-3-fluorobenzamide] | ≤ 10 |
| O=C(NC1CC1)c1ccc(-c2ccc3c(c2)CCN([C@@H]2CCN(C4CCC4)C2)C3=O)c(F)c1 [Example 81, 4-{2-[(3R)-1-cyclobutylpyrrolidin-3-yl]-1-oxo-1,2,3,4-tetrahydroisoquinolin-6-yl}-N-cyclopropyl-3-fluorobenzamide] | ≤ 10 |
| CNC(=O)c1ccc(-c2ccc3c(c2)CCN([C@@H]2CCN(C(C)C)C2)C3=O)cc1 [Example 82] | ≤ 10 |
| CCNC(=O)c1ccc(-c2ccc3c(c2)CCN([C@@H]2CCN(C(C)C)C2)C3=O)cc1 [Example 83, N-ethyl-4-{2-[(3R)-1-isopropylpyrrolidin-3-yl]-1-oxo-1,2,3,4-tetrahydroisoquinolin-6-yl}benzamide] | ≤ 10 |
| CC(C)N1CC[C@@H](N2CCc3cc(-c4ccc(C(=O)N5CCCC5)cc4F)ccc3C2=O)C1 [Example 84, 6-[2-fluoro-4-(pyrrolidin-1-ylcarbonyl)phenyl]-2-[(3R)-1-isopropylpyrrolidin-3-yl]-3,4-dihydroisoquinolin-1(2H)-one] | ≤ 10 |
| CNC(=O)c1ccc(-c2ccc3c(c2)CCN([C@@H]2CCN(C(C)C)C2)C3=O)c(F)c1 [Example 85, 3-fluoro-4-{2-[(3R)-1-isopropylpyrrolidin-3-yl]-1-oxo-1,2,3,4-tetrahydroisoquinolin-6-yl}-N-methylbenzamide] | ≤ 10 |
| CCNC(=O)c1ccc(-c2ccc3c(c2)CCN([C@@H]2CCN(C(C)C)C2)C3=O)c(F)c1 [Example 86, N-ethyl-3-fluoro-4-{2-[(3R)-1-isopropylpyrrolidin-3-yl]-1-oxo-1,2,3,4-tetrahydroisoquinolin-6-yl}benzamide] | ≤ 10 |
| O=C(c1ccc2c(c1)CCN([C@@H]1CCN(C3CCC3)C1)C2=O)N1CCCC1 [Example 87, 2-[(3R)-1-cyclobutylpyrrolidin-3-yl]-6-(pyrrolidin-1-ylcarbonyl)-3,4-dihydroisoquinolin-1(2H)-one hydrochloride] | 25.1 to 50 |
| O=C(NC1CCCC1)c1ccc2c(c1)CCN([C@@H]1CCN(C3CCC3)C1)C2=O [Example 88, 2-[(3R)-1-cyclobutylpyrrolidin-3-yl]-N-cyclopentyl-1-oxo-1,2,3,4-tetrahydroisoquinoline-6-carboxamide hydrochloride] | 10.1 to 25 |
| O=C1NCCc2cc(-c3ccc4c(c3)CCN([C@@H]3CCN(C5CCC5)C3)C4=O)ccc21 [Example 89, (R)-2-(1-cyclobutylpyrrolidin-3-yl)-3,3′,4,4′-tetrahydro-6,6′-biisoquinoline-1,1′(2H,2′H)-dione hydrochloride] | ≤ 10 |
| CNC(=O)c1ccc(-c2ccc3c(c2)CN([C@@H]2CCN(C4CCC4)C2)C3=O)cc1 [Example 91, (R)-4-(2-(1-cyclobutylpyrrolidin-3-yl)-1-oxoisoindolin-5-yl)-N-methylbenzamide hydrochloride] | 10.1 to 25 |
| O=C(c1ccc(-c2ccc3c(c2)CN([C@@H]2CCN(C4CCC4)C2)C3=O)cc1)N1CCCC1 [Example 92, (R)-2-(1-cyclobutylpyrrolidin-3-yl)-5-(4-(pyrrolidine-1-carbonyl)-phenyl)isoindolin-1-one hydrochloride] | ≤ 10 |

tested on: not given; experiment: not given; settings: not given

| SMILES | melting point [°C] |
| --- | --- |
| O=C(O)c1ccc(Oc2ccc3c(c2)CCN(C2CCN(C4CCC4)CC2)C3=O)cc1 [Example 2, 4-{[2-(1-cyclobutylpiperidin-4-yl)-1-oxo-1,2,3,4-tetrahydroiso-quinolin-6-yl]oxy}benzoic acid] | 255 to 256 |
| COC(=O)c1ccc(COc2ccc3c(c2)CCN(C2CCN(C4CCC4)CC2)C3=O)cc1 [Example 13, methyl 4-({[2-(1-Cyclobutylpiperidin-4-yl)-1-oxo-1,2,3,4-tetrahydroisoquinolin-6-yl]oxy}methyl)benzoate] | 165 to 166 |
| O=C(O)c1ccc(COc2ccc3c(c2)CCN(C2CCN(C4CCC4)CC2)C3=O)cc1 [Example 14, 4-({[2-(1-cyclobutylpiperidin-4-yl)-1-oxo-1,2,3,4-tetrahydroiso-quinolin-6-yl]oxy}methyl)benzoic acid] | 269 to 270 |
| O=C(O)c1ccc(Oc2ccc3c(c2)CCN([C@@H]2CCN(C4CCCC4)C2)C3=O)cc1 [Example 36, (R)-4-(2-(1-cyclopentylpyrrolidin-3-yl)-1-oxo-1,2,3,4-tetrahydro-isoquinolin-6-yloxy)benzoic acid] | 170 to 173 |
